Measured values from US20200095296A1, “USE OF PEPTIDES AS BIOMARKERS IN THE DIAGNOSIS, CONFIRMATION AND TREATMENT OF A NEUROLOGICAL DISORDER AND TCR AND/OR HLA IMMUNOPROFILING IN NEURODEGENERATIVE DISEASE” (THE TRUSTEES OF COLUMBIA UNIVERSITY IN THE CITY OF NEW YORK, priority 2017, published 2020).
Where no end group is shown, it is not given here. [ ]: non-standard residue; d: D form. pT = C[C@@H](OP(=O)(O)O)[C@H](N)C(=O)O; pS = N[C@@H](COP(=O)(O)O)C(=O)O

System: PBMC
Assay: IFNg/IL-5 dual ELISPOT after 14 day in vitro stimulation of PBMC with Tau peptides
Type: cell-based, human
Conditions: for PD % of Total Responders / PD Total SFC / PD Total Responders: PD donors; for % of total response / Average SFC per responder / Frequency of response / Total SFC per epitope: across all cohorts; for Total Responders / Total SFC: all three cohorts (PD, HC > 50, HC < 35); for HC < 35 Total Responders / HC < 35 Total SFC: healthy controls < 35 years old
Source text: It was investigated whether T cell responses against Tau were detectable in the PD and healthy control (HC) donors. To this end, a panel of overlapping peptides spanning through the entire sequence of the Tau protein was synthesized. Since it is known that the Tau protein is post-translationally modified (mainly by phosphorylation), in several instances phosphorylated peptides were also synthesized. In all, 55 non-modified 16-mers overlapping by 8 and 14 modified 16-mers were synthesized.
PD: n=16, peptides tested 14-16 times; HC above 50 years old denominated as age-matched: n=11 (9-11 times) and HC below 35 years old (HC Young): n=13 (10-13 times).
These peptides were tested utilizing the following assay strategy. Briefly, PBMC from each donor were stimulated in vitro for 14 days as described (Hinz, D., 2015) with pools of 10 to 16 peptides each. After 14 days, the T cell cultures were assayed with IFNg/IL-5 dual ELISPOT assays […]. Positive pools were deconvoluted at day 17 to identify the specific individual epitopes recognized.

[1] = healthy controls > 50 years old

Row | Sequence | PD/HC > 50 Ratio of % Responders | PD/HC > 50 Ratio of Response | HC > 50 % of Total Responders | HC > 50 Total SFC (HC > 50, dominant epitopes) | PD % of Total Responders | PD Total SFC (dominant epitopes) | % of total response | Average SFC per responder | Frequency of response | Total SFC per epitope | PD Total Responders | PD Total SFC | Total Responders | Total SFC | HC < 35 Total Responders | HC < 35 Total SFC | HC > 50 Total Responders [1] | HC > 50 Total SFC [1]
1 | LATLADEVSASLAKQG (listed as Homo sapiens) [Tau 16-mer, start 425] | 0.3 | 0.5 | 75.0% | 2530 SFC | 25.0% | 1263 SFC | 1.1% | 948 SFC | 7.5 | 3793 SFC |  |  |  |  |  |  |  | 
2 | PAPKTPPSSGEPPKSG (PAPK[pT]PPSSGEPPKSG; listed as Homo sapiens) |  |  |  |  |  |  |  |  |  |  | 0 | 0 SFC | 1 | 107 SFC | 0 | 0 SFC | 1 | 107 SFC
3 | PAPKXPPSSGEPPKSG (PAPK[pT]PPSSGEPPKSG) | 1.8 | 2.4 | 19.2% | 6207 SFC | 34.6% | 14672 SFC | 12.2% | 1639 SFC | 49.1 | 42624 SFC | 9 | 14672 SFC | 26 | 42624 SFC | 12 | 21745 SFC | 5 | 6207 SFC
4 | PMPDLKNVKSKIGSTE (PMPDLKNVKSKIG[pS]TE; listed as Homo sapiens) [Tau 16-mer, start 249] | 1.7 | 2.2 | 30.0% | 6084 SFC | 50.0% | 13363 SFC | 5.7% | 1982 SFC | 18.9 | 19815 SFC | 5 | 13363 SFC | 10 | 19815 SFC | 2 | 368 SFC | 3 | 6084 SFC
5 | PMPDLKNVKSKIGZTE | 1.3 | 1 | 36.4% | 5168 SFC | 45.5% | 5175 SFC | 3.2% | 1006 SFC | 20.8 | 11063 SFC | 5 | 5175 SFC | 11 | 11063 SFC | 2 | 720 SFC | 4 | 5168 SFC
6 | SLEDEAAGHVTQARMV (listed as Homo sapiens) [Tau 16-mer, start 113] | 2.0 | 11 | 33.3% | 640 SFC | 66.7% | 7058 SFC | 2.2% | 1283 SFC | 11.3 | 7698 SFC |  |  |  |  |  |  |  | 
7 | SNVSSTGSIDMVDSPQ (listed as Homo sapiens) [Tau 16-mer, start 409] |  |  |  |  |  |  |  |  |  |  | 2 | 710 SFC | 3 | 1767 SFC | 0 | 0 SFC | 1 | 1057 SFC
8 | SNVSSTGSIDMVDZPQ |  |  |  |  |  |  |  |  |  |  | 4 | 1484 SFC | 4 | 1484 SFC | 0 | 0 SFC | 0 | 0 SFC
9 | SVQIVYKPVDLSKVTS (listed as Homo sapiens) | 0.9 | 1.1 | 42.1% | 5460 SFC | 36.8% | 6203 SFC | 4.0% | 731 SFC | 35.8 | 13888 SFC |  |  |  |  |  |  |  | 
10 | TPPTREPKKVAVVRTP (listed as Homo sapiens) |  |  |  |  |  |  |  |  |  |  | 1 | 1707 SFC | 1 | 1707 SFC | 0 | 0 SFC | 0 | 0 SFC
11 | TPPTREPKKVAVVRXP |  |  |  |  |  |  |  |  |  |  | 4 | 1813 SFC | 7 | 2210 SFC | 3 | 397 SFC | 0 | 0 SFC
12 | TRIPAKTPPAPKTPPS (listed as Homo sapiens) [Tau 16-mer, start 169] | 1.0 | 8.1 | 33.3% | 180 SFC | 33.3% | 145 SFC | 1.1% | 1299 SFC | 5.7 | 3897 SFC |  |  |  |  |  |  |  | 
13 | VDLSKVTSKCGSLGNI (listed as Homo sapiens) [Tau 16-mer, start 313] | 2.0 | 7.5 | 28.6% | 897 SFC | 57.1% | 671 SFC | 2.8% | 1409 SFC | 13.2 | 9861 SFC |  |  |  |  |  |  |  | 
14 | VYKSPVVSGDTSPRHL (listed as Homo sapiens) [Tau 16-mer, start 393] | 1.0 | 2.6 | 42.9% | 3397 SFC | 42.9% | 8951 SFC | 3.8% | 1915 SFC | 13.2 | 13408 SFC |  |  |  |  |  |  |  | 
